# Results from patent US20250032581A1, “COMPOSITIONS AND ARTICLES COMPRISING AN ADNF POLYPEPTIDE” (RAMOT AT TEL-AVIV UNIVERSITY LTD., priority 2021, published 2025).
# How the values were obtained:
# Type in all cases: cell-based, mouse
# [1] = test system: differentiated N1E-115 cells expressing RFP-tagged EB3; experiment: Live imaging of EB3 comet-like structures (MT dynamics); settings: 10^−12M, 4 hrs, vs. non-treated control; no significant differences between NAP and SKIP
# Excerpt: Plasmid construction—Protein expressing plasmids were constructed as previously described based on pEGFP-C1 backbone and express full-length ADNP or the following truncated ADNP proteins: p.Glu830synfs*83, p.Lys408Valfs*31, p.Ser404* (as before). Inserts of cDNA carrying unique mutations were obtained from mRNA extracted from patient-derived lymphoblastoid cell lines and cDNA with full-length human ADNP was obtained from a control lymphoblastoid cell line with no mutation. Protein expressions were verified by fluorescent imaging and immunoblotting analysis as before.
# (§1) Cell culture—Mouse neuroblastoma NIE-115 cells were maintained in Dulbecco's modified Eagle's medium, 10% fetal bovine serum, 2 mM glutamine and 100 U ml-1 penicillin, 100 mg ml-1 streptomycin (Biological Industries, Beit Haemek, Israel). The cells were incubated in 9 5% air/5% CO2 in a humidified incubator at 37° C.
# (§2) Cell differentiation and co-transfection of overexpression plasmids—Cultured NIE-115 cells were plated on 35 mm dishes (81156, 60 p-Dish, Ibidi, Martinsried, Germany) at a concentration of 1.25×10^4 cells per dish and then were differentiated with reduced fetal bovine serum (2%) and DMSO (1.25%) containing medium for 5 days before transfection. 48 hrs before experiments N1E-115 cells were co-transfected with 1 μg EB3-RFP or mCherry-Tau (3R) plasmid with or without 2 μg of plasmids, coding to GFP conjugated to full-length human ADNP, or ADNP carried mutations. 1:3 ratios between total amount of transfected DNA and transfection reagent were used according to manufacture guidance (Lipofectamine2000, Thermo Fisher Scientific, Waltham, MA, USA) in all subsequent experiments.
# Live Imaging—48 hrs after transfection, differentiated NIE-115 cells (expressing EB3-RFP with or without GFP-conjugated to full-length ADNP or mutated ADNP) were incubated at 37° C. with a 5% CO2/95% air mixture in a thermostatic chamber placed on the stage of a Leica TCS SP5 confocal microscope (objective 100× (PL Apo) oil immersion, NA 1.4). Time-lapse images were automatically captured 3 sec during 1 min, using the Leica LAS AF software. After imaging all samples were also treated with NAP (SEQ ID NO: 2) or SKIP (SEQ ID NO: 21) in final concentrations of 10^−12M, and after 4 hrs time-lapse imaging was done again under the same conditions. Data was collected and analyzed by Imaris software.
# To evaluate the effect of ADNP truncated proteins on MT dynamics time-lapse imaging of EB3 comet-like structures formed by RFP-tagged EB3 proteins that bind to MT plus-ends was performed. Two parameters of EB3 activity were used to assess MT dynamics—track length and track speed of EB3 comets, which reflect the length of freshly growing MTs and the speed of MT assembly, respectively. Furthermore, the present inventors aimed to determine whether NAP ([…] for 4 hrs) could prevent the deleterious effect of ADNP mutations.
# [2] = test system: Tau-MT interaction in differentiated N1E-115 cells; experiment: Fluorescence recovery after photobleaching (FRAP) of mCherry-Tau; settings: zinc 400 μM, 1 h; peptide 10^−12M
# Protocol: as §1, §2
# Fluorescence recovery after photobleaching (FRAP)—Differentiated NIE-115 cells were transfected with mCherry-Tau with or without GFP-conjugated to full-length ADNP or mutated ADNP, and imaged 48 hrs after transfection. An ROI for photobleaching was drowned in the proximal cell branches. mCherry-Tau was bleached with a […], and fluorescence recovery was collected within wavelengths of 610-650 nm. 80 images were taken every 0.74 sec immediately after bleaching. After FRAP imaging all samples were also treated with NAP in final concentrations of 10^−12M, and after 4 hrs time-lapse imaging was done again under the same conditions. FRAP imaging for assessment difference between NAP and SKIP (SEQ ID NO: 21) activity was performed after an hour of ZnCl2 treatment (400 μM final concentration; Sigma, Rehovot, Israel) with or without NAP/SKIP (10^−12M final concentration). Fluorescence signals were quantified with Fiji, obtained data were normalized with easyFRAP [82, 83] and FRAP recovery curves were fitted by a one-phase exponential association function by GraphPad Prism6 (GraphPad Software, Inc., La Jolla, CA, USA) while samples with R^2<0.9 were excluded.
# Next, the effect of full-length/truncated ADNP forms with or without NAP treatment on Tau-MT interaction was examined by fluorescence recovery after photobleaching (FRAP) (FIGS. 8A-C). FRAP was performed with mCherry-tagged Tau protein (FIG. 8A). […] Therefore, the immobile mCherry-Tau fraction reflects the rate of Tau association with MTs.
# Tau, tubulin = experiment: Polymerized vs. soluble tubulin assay; settings: zinc 400 μM, 4 h, peptide 10^−12M
# Protocol: Polymerized vs. soluble tubulin assay—To quantify tubulin polymerization and Tau-MT association, a simple assay was performed as previously described. The cells grown to confluence in six-well plates were washed with MT buffer (80 mM PIPES pH 6.8, 1 mM MgCl^2, 2 mM EGTA, 5% Glycerol) and lysed at room temperature for 5 min through centrifugation (300 g), with 150 μl of MT buffer with 0.5% Triton X-100 to extract soluble (cytosolic) tubulin (S). The pelleted cells were rinsed once again with an equal volume of modified RIPA lysis buffer (50 mM Tris-HCL pH 7.4, 150 mM NaCl, 2 mM EGTA, 1% Triton X-100, 0. 1% SDS, 0.1% sodium Deoxycholate) to collect the polymerized (cytoskeletal) tubulin (P). The cytosolic and cytoskeletal fractions were each mixed with sample buffer and heated at 95° C. for 5 min. An equal volume of each fraction was analyzed by immunoblotting with Tau, tubulin and actin antibodies, and the results following ECL development were quantified by densitometry (GelQuant.NET software provided by biochemlabsolutions(dot)com).
# It is known that in the presence of extracellular zinc NAP protects MT against degradation by promoting Tau binding to the MT shaft. Polymerized vs. soluble tubulin assay was effected to compare protective activities of NAP and SKIP against MT degradation and Tau-MT dissociation (FIGS. 11F-G). After treatments with zinc (400 μM, 4 h) with and without NAP or SKIP (10^−12M, 4 h) the cellular-tubulin pool was separated into polymerized and soluble tubulin fractions. The amount of Tau, tubulin, and actin was identified by immunoblotting (FIG. 11F), followed by densitometric quantification (FIG. 11G).
substance,measurement,setting,value
SKIP,EB3 track length and speed,[1],increased EB3 track length and speed
same,Tau immobile fraction (Tau-MT interaction) in the presence of zinc,[2],prevented zinc adverse effect
same,protection against Tau dissociation from MTs (soluble Tau ratio),"Tau, tubulin",only NAP exhibited protection against Tau dissociation from MTs
same,protection of polymerized tubulin against zinc,"Tau, tubulin",protected against zinc-induced decay
